Measurements published in US10640506B2, “Cyclobutyl substituted pyrrolopyridine and pyrrolopyrimidines derivatives as JAK inhibitors” (Incyte Corporation, priority 2010, dated 2020).
Read-outs that look alike come from different tables or passages of the source.

Assays:
[1] = molecular target: human JAK1 (a.a. 837-1142) (Homo sapiens, UniProt P23458); test: In vitro JAK kinase assay (HTRF, phosphorylation of biotinylated peptide), JAK1; type: biochemical
Outline: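 Phosphorylation of a biotinylated peptide was run at room temperature for 1 hour using the N-terminally His-tagged JAK1 kinase domain (837-1142) from insect cells. After an EDTA stop, Eu-Py20 and SA-APC gave an HTRF read; values are binned potency ranges.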

JAK2 (a.a. 828-1132) = molecular target: T1, JAK2 (a.a. 828-1132) (Homo sapiens, UniProt O60674); test: In vitro JAK kinase assay (HTRF, phosphorylation of biotinylated peptide), JAK2; type: biochemical
T1 construct: JAK2 (a.a. 828-1132); His tag (N)
T1 sequence (O60674 828-1132): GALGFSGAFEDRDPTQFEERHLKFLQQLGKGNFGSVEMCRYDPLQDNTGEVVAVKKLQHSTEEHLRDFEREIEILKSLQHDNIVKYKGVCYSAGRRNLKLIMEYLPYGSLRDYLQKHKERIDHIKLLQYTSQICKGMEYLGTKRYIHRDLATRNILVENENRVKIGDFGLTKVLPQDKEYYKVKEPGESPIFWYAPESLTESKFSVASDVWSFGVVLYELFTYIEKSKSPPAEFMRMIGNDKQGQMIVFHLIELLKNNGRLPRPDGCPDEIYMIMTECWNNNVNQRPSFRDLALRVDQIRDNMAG
Outline: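 HTRF detection (Eu-Py20, SA-APC, 40 min) of biotinylated-peptide phosphorylation, following a 1 hour room-temperature reaction quenched with 45 mM EDTA. Enzymes: insect-cell-expressed N-terminal His-tagged JAK1 (837-1142) and JAK2 (828-1132) catalytic domains. Activities reported in ranged categories.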

[2] = Table B, 1 mM ATP, read-out: JAK1 IC50
[3] = Table B, 1 mM ATP, read-out: JAK2 IC50
[4] = Table A, 1 mM ATP, read-out: JAK1 IC50
[5] = Table A, 1 mM ATP, read-out: JAK2 IC50

Chain of human JAK1 (a.a. 837-1142) (P23458 849-1154): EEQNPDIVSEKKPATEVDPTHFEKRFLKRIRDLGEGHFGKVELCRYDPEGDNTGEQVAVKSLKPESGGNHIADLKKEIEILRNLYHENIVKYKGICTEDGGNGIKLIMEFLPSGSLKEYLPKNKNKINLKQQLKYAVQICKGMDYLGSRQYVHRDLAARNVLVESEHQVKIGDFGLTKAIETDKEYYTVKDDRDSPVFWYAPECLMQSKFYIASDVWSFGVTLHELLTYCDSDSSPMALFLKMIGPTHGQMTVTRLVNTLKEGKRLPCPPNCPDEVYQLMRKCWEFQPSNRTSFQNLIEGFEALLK

| Compound | IC50 ([1]; Table F, 1 mM ATP) [nM] | IC50 (JAK2 (a.a. 828-1132); Table F, 1 mM ATP) [nM] | other results |
| --- | --- | --- | --- |
| CN(C)C1(c2cc(C(=O)N3CCN([C@H]4C[C@@](CC#N)(n5cc(-c6ncnc7[nH]ccc67)cn5)C4)CC3)nc(C(F)(F)F)n2)CCC1 [Example 64, {cis-3-(4-{[6-[1-(dimethylamino)cyclobutyl]-2-(trifluoromethyl)pyrimidin-4-yl]carbonyl}piperazin-1-yl)-1-[4-(7H-pyrrolo[2,3-d]pyrimidin-4-yl)-1H-pyrazol-1-yl]cyclobutyl}acetonitrile] | < 10 | 25 to 100 |  |
| CCN(CC)Cc1cc(OC2CCN([C@H]3C[C@](CC#N)(n4cc(-c5ncnc6[nH]ccc56)cn4)C3)CC2)cc(C(F)(F)F)c1 [Example 139, {trans-3-{4-[3-[(diethylamino)methyl]-5-(trifluoromethyl)phenoxy]piperidin-1-yl}-1-[4-(7H-pyrrolo[2,3-d]pyrimidin-4-yl)-1H-pyrazol-1-yl]cyclobutyl}acetonitrile] | < 10 | > 100 |  |
| CC(C)(O)c1cc(C(=O)N2CCN([C@H]3C[C@@](CC#N)(n4cc(-c5ncnc6[nH]ccc56)cn4)C3)CC2)nc(C(F)(F)F)n1 [Example 59, {cis-3-(4-{[6-(1-hydroxy-1-methylethyl)-2-(trifluoromethyl)pyrimidin-4-yl]carbonyl}piperazin-1-yl)-1-[4-(7H-pyrrolo[2,3-d]pyrimidin-4-yl)-1H-pyrazol-1-yl]cyclobutyl}acetonitrile] | < 10 | 25 to 100 |  |
| 3-[(4-{trans-3-(cyanomethyl)-3-[4-(7H-pyrrolo[2,3-d]pyrimidin-4-yl)-1H-pyrazol-1-yl]cyclobutyl}piperazin-1-yl)methyl]-5-[(dimethylamino)methyl]benzonitrile [Example 43] |  |  | IC50 ([1]; read-out: JAK1 IC50 (nM) at 1 mM ATP, Table F): 25 to 100 nM; IC50 (JAK2 (a.a. 828-1132); read-out: JAK2 IC50 (nM) at 1 mM ATP, Table F): > 100 nM |
| CC(C)c1nccc(C(=O)N2CCN([C@H]3C[C@](CC#N)(n4cc(-c5ncnc6[nH]ccc56)cn4)C3)CC2)n1 [Example 24b, {trans-3-{4-[(2-isopropylpyrimidin-4-yl)carbonyl]piperazin-1-yl}-1-[4-(7H-pyrrolo[2,3-d]pyrimidin-4-yl)-1H-pyrazol-1-yl]cyclobutyl}acetonitrile] |  |  | IC50 [1, 2]: 10 to 25 nM; IC50 (JAK2 (a.a. 828-1132); [3]): 25 to 100 nM |
| N#CC[C@]1(n2cc(-c3ncnc4[nH]ccc34)cn2)C[C@@H](N2CCN(C(=O)c3cc(F)cc(C#N)c3)CC2)C1 [Example 12a, 3-[(4-{cis-3-(cyanomethyl)-3-[4-(7H-pyrrolo[2,3-d]pyrimidin-4-yl)-1H-pyrazol-1-yl]cyclobutyl}piperazin-1-yl)carbonyl]-5-fluorobenzonitrile] |  |  | IC50 [1, 4]: < 10 nM; IC50 (JAK2 (a.a. 828-1132); [5]): 25 to 100 nM |
| N#CC[C@]1(n2cc(-c3ncnc4[nH]ccc34)cn2)C[C@H](N2CCN(C(=O)c3cccc(C(F)F)n3)CC2)C1 [Example 21b, {trans-3-(4-{[6-(difluoromethyl)pyridin-2-yl]carbonyl}piperazin-1-yl)-1-[4-(7H-pyrrolo[2,3-d]pyrimidin-4-yl)-1H-pyrazol-1-yl]cyclobutyl}acetonitrile] |  |  | IC50 [1, 2]: < 10 nM; IC50 (JAK2 (a.a. 828-1132); [3]): 10 to 25 nM |
| N#CC[C@]1(n2cc(-c3ncnc4[nH]ccc34)cn2)C[C@H](N2CCN(C(=O)NC3CC3)CC2)C1 [Example 98, 4-{trans-3-(cyanomethyl)-3-[4-(7H-pyrrolo[2,3-d]pyrimidin-4-yl)-1H-pyrazol-1-yl]cyclobutyl}-N-cyclopropylpiperazine-1-carboxamide] | < 10 | > 100 |  |
| N#CC[C@]1(n2cc(-c3ncnc4[nH]ccc34)cn2)C[C@@H](N2CCN(C(=O)c3cncc(C(F)(F)F)n3)CC2)C1 [Example 14a, [cis-1-[4-(7H-pyrrolo[2,3-d]pyrimidin-4-yl)-1H-pyrazol-1-yl]-3-(4-{[6-(trifluoromethyl)pyrazin-2-yl]carbonyl}piperazin-1-yl)cyclobutyl]acetonitrile] |  |  | IC50 [1, 4]: < 10 nM; IC50 (JAK2 (a.a. 828-1132); [5]): 25 to 100 nM |
| N#CC[C@]1(n2cc(-c3ncnc4[nH]ccc34)cn2)C[C@H](N2CCC(Oc3cc(CN4CCCC4)cc(C(F)(F)F)n3)CC2)C1 [Example 158, {trans-3-(4-{[4-(pyrrolidin-1-ylmethyl)-6-(trifluoromethyl)pyridin-2-yl]oxy}piperidin-1-yl)-1-[4-(7H-pyrrolo[2,3-d]pyrimidin-4-yl)-1H-pyrazol-1-yl]cyclobutyl}acetonitrile] | < 10 | 25 to 100 |  |
